How the values were obtained:
Assay type in all cases: cell-based
[1] = test system: test fungi envisaged in DIN EN ISO 846 or Aspergillus niger (ATCC 6275) as sole test organism; assay: Fungal resistance of cured silicone joint sealant films, test along the lines of DIN EN ISO846 after QUV aging (infestation index); design: key to Infestation index: sum of weekly growth ratings (0 = no growth to 5 = fully overgrown)
Description: Cured silicone films (approximately 80×60×5 mm) are sprayed alternately for 15 minutes each with a spray solution (2% strength aqueous Texapon NSO solution containing 0.5% Dehydran 1513 defoamer), then irradiated with UV light for 15 minutes, in a QUV accelerated weathering instrument (e.g. QUV-spray model). Per week, the test specimens are exposed to 198 spraying units and 198 UV units. After 4 (792 shower cycles), 8 (1584 shower cycles), and 12 weeks (2376 shower cycles), test specimens are taken for microbiological examination. An unweathered sample is likewise investigated microbiologically.
The fungal resistance of cured joint-sealing compounds is assessed in a method based on DIN EN ISO846: “Determination of the action of microorganisms on plastics (ISO 846:1997 German version EN ISO 846: 1997); (amended).
Test specimens of cured joint-sealing compounds are applied planarly to an agar surface. A fungal suspension is caused to act on the test specimens and the surrounding agar surface. After incubation, an assessment is made of the growth on and around the test specimens.
Test conditions: The following important amendments and additions to the DIN EN ISO 846 are carried out: • (1) The test specimens are tested to DIN EN ISO 846 without pretreatment. Additionally, test specimens are also assessed in the test after pretreatment. This pretreatment (leaching) may take place, for example, by incubation for a number of weeks in a flow-traversed immersion bath with water or by accommodating suitable test specimens in a QUV; • (2) The fungal spore suspension is incubated under relatively harsh, realistic conditions with increased ambient air humidity (approximately 85% relative humidity) in a humid chamber; • (3) The test specimens are incubated on ‘complete nutrient medium’ (cf. DIN EN ISO 846 4.2.1.2 method B), but with ‘wort agar’; • (4) As test organisms use is made either of the test fungi envisaged in DIN EN ISO 846: • Aspergillus niger ATCC 6275 • Penicillium funiculosum ATCC 36839 • Paecilomyces variotii ATCC 18502 • Gliocladium virens ATCC 9645 • Chaetomium globosum ATCC 6205 • or, alternatively, the strain Aspergillus niger (ATCC 6275) as sole test organism.
Evaluation of the growth on the test elements: • 0=no growth visible under microscope viewing • 1=no growth visible with naked eye, but growth clearly visible under the microscope • 2=growth visible with naked eye, up to 25% of the sample surface overgrown • 3=growth visible with naked eye, up to 50% of the sample surface overgrown • 4=considerable growth, over 50% of the sample surface overgrown • 5=severe growth, entire sample surface overgrown
All in all, the specimens are incubated for 18 weeks and inoculated again after 4 and 8 weeks in each case. The individual evaluations are added over this period and reported collectively as the infestation index.
A commercially customary silicone joint sealant (e.g., Dow Corning 3390) is admixed with the actives described and stirred with a stirrer until homogeneity is achieved. Thereafter, films of the sealant are produced and tested as described above.

[2] = test system: Aspergillus niger (DSM1988); assay: Sporulation inhibition on wort agar plates
Description: The surface of wort agar plates was contaminated with 100 μl in each case of a microbial suspension (10^3 CFU/ml) of Aspergillus niger (DSM1988). Added beforehand to the agar plates were different amounts of active (solutions in ethanol, for final concentrations see table). The plates were incubated at 25° C. for 3 days. Spore formation was assessed visually and the sporulation rate was ascertained in [%]. A growth inhibition or microbicidal effect only occurred for a concentration of 0.05% by weight OPP.

Candida albicans = assay: Hyphal formation and cell growth of Candida albicans
Excerpt: Fucoidin, also known under the name fucosidan or fucoidan, is a polysaccharide from brown algae (Fucus vesiculosa, bladder wrack) which consists principally of sulfated L-fucose in 1,2-α-glycosidic linkage.

[3] = Amount of active added 500 ppm in silicone joint sealant, evaluations (0-5) added over 18 weeks
[4] = Amount of active added 1000 ppm in silicone joint sealant, evaluations added over 18 weeks

## CCCCCCCCn1sc(Cl)c(Cl)c1=O [DCOIT]
[1]; [3]
  Infestation index: 77
[1]; [4]
  Infestation index: 81
[1]; Amount of active added 2000 ppm in silicone joint sealant, evaluations added over 18 weeks
  Infestation index: 78

## CC(C)(C)C(O)(CCc1ccc(Cl)cc1)Cn1cncn1 (stereo not shown) [Tebuconazole, a-(2-(4-chlorophenyl)ethyl)-a-(1,1-dimethylethyl)-1H-1,2,4-triazole-1-ethanol]
[1]; [3]
  Infestation index: 60
[1]; [4]
  Infestation index: 57
[1]; Amount of active added 2500 ppm in silicone joint sealant, evaluations added over 18 weeks
  Infestation index: 37
[1]; Amount of active added 5000 ppm in silicone joint sealant, evaluations added over 18 weeks
  Infestation index: 20
[1]; Amount of active added 10000 ppm in silicone joint sealant, evaluations added over 18 weeks
  Infestation index: 12
[1]; in sealants, not observed with fungicides typically used at present
  dependence of mold prevention on concentration: virtually linear dependence with increasing concentration

## Oc1ccccc1-c1ccccc1 [ortho-phenylphenol]
[2]; Concentration of OPP 0.00001 %, 25° C., 3 days, assessed visually
  Sporulation [%]: 95%
[2]; Concentration of OPP 0.00005 %, 25° C., 3 days
  Sporulation [%]: 95%
[2]; Concentration of OPP 0.0001 %, 25° C., 3 days
  Sporulation [%]: 95%
[2]; Concentration of OPP 0.0005 %, 25° C., 3 days
  Sporulation [%]: 50%
[2]; Concentration of OPP 0.001 %, 25° C., 3 days
  Sporulation [%]: 25%
[2]; Concentration of OPP 0.005 %, 25° C., 3 days
  Sporulation [%]: 0%
[2]; without any growth inhibition activity occurring
  concentration of complete suppression of spore formation relative to growth-inhibiting concentration: fifty times lower
[2]; wort agar, 25° C., 3 days
  concentration at which a growth inhibition or microbicidal effect occurred: 0.05 % by weight
  use concentration at which spore formation was suppressed completely: 0.001 % by weight

## Fucoidin
Candida albicans
  cell growth: unaffected
  hyphal formation: significantly reduced

## ortho-phenylphenol-silicic ester
[2]; Concentration of OPP-silicic ester 0.00001 %, 25° C., 3 days
  Sporulation [%]: 95%
[2]; Concentration of OPP-silicic ester 0.00005 %, 25° C., 3 days
  Sporulation [%]: 95%
[2]; Concentration of OPP-silicic ester 0.0001 %, 25° C., 3 days
  Sporulation [%]: 95%
[2]; Concentration of OPP-silicic ester 0.0005 %, 25° C., 3 days
  Sporulation [%]: 50%
[2]; Concentration of OPP-silicic ester 0.001 %, 25° C., 3 days
  Sporulation [%]: 25%
[2]; Concentration of OPP-silicic ester 0.005 %, 25° C., 3 days
  Sporulation [%]: 0%
[2]; Concentration of OPP-silicic ester 0.01 %, 25° C., 3 days
  Sporulation [%]: 0%
[2]; wort agar, 25° C., 3 days
  use concentration at which spore formation was suppressed completely: 0.005 % by weight

Source: US8821908B2, “Mold-resistant construction materials” (Henkel AG & Co. KGaA, priority 2004, dated 2014)
